According to US10227324B2 (Shanghai Haiyan Pharmaceutical Technology Co., Ltd., priority 2014, dated 2019):
Like-named read-outs stand apart in the source and are kept apart here.

What was measured:
[1] = Metabolism stability assay in liver microsomes; assay type: in vitro ADME, mouse; settings: liver microsomal metabolism in mice
Protocol: Buffer A: 1 L solution of 100 mM potassium dihydrogen phosphate containing 1 mM EDTA (Sigma, V900157-100G) was prepared. Buffer B: 1 L solution of 100 mM dipotassium hydrogen phosphate containing 1 mM EDTA was prepared. Buffer C: 700 mL of buffer B was taken out and titrated with buffer A to pH 7.4.
2.1 10 μl of 10 mM compound to be tested and 10 μl of 10 mM ketanserin were taken out and 190 μl of pure acetonitrile was added to each of them to prepare 500 μM compound to be tested and ketanserin, respectively.
2.2 20 μl (20 mg/mL) of liver microsomes (XENOTECH, H0610) stock solution was added to 513.4 μl of buffer C on wet ice. 0.75 mg/mL liver microsomal solution was obtained.
2.3 1.5 μl of each of the above-mentioned compound to be tested and ketanserin solution was added to 498.5 μl of liver microsomal solution (0.7 5 mg/mL) respectively on wet ice. 1.5 μM mixed solution of compound to be tested and 1.5 μM mixed solution of ketanserin were obtained.
2.4 At the time points 0, 5, 15, 30, 45, and 60 min, 30 μl of the mixed solution of compound to be tested and 30 μl of the mixed solution of ketanserin were dispensed into the reaction plate on wet ice, respectively.
2.5 5 mg reduced coenzyme II (Roche, 10621706001) was weighed and dissolved in 1 mL of buffer C. 6 mM reduced coenzyme II solution was obtained. The reduced coenzyme II solution was dispensed into the reaction plate.
2.6 Imipramine was dissolved to give a 10 mM solution. 10 μl imipramine solution was added to 100 mL of blank acetonitrile to generate the internal reference.
2.7 At 0 min, 135 μL of iced acetonitrile (Merck, UN 1648) containing the internal reference was added to each well and then 15 μL of buffer C was added.
2.8 The reaction plate was placed into a 37° C. water bath incubator for 5 min. In the reaction plate, 15 μL of reduced coenzyme II solution was added to each well to initiate the reaction, and the time keeping was started. At the time points of 5, 15, 30, 45, and 60 min, 135 μL of iced acetonitrile containing the internal reference was added to each well to terminate the reaction.
2.9 The reaction plate was sealed with an aluminum film, placed on a vibration mixer and shaken at 500 rpm for 5 min. The plate was then centrifuged in a centrifuge at 3750 rp for 15 min.
2.10 The sample was diluted with pure water in accordance with the ratio of 1:1 and detected by LC/MS.
Half-life: 0.693/K (the slope by plotting based on the incubation time and logarithm of the concentration value)
Clearance ratio: (0.693/half-life)*(1/protein concentration (0.5 mg/mL))*(proportional factor)
Wherein, the K value and the proportional factor were calculated by those skilled in the art according to the methods described in the prior art and contained in the instructions of the liver microsome product.

[2] = molecular target: T1, PI3K-δ kinase (p110δ/p85α) (Homo sapiens, UniProt O00329); assay: Determination of PI3K kinase activity (ADP Transcreener, fluorescence polarization); assay type: biochemical; settings: Table 1; ATP 10 μM; read-out: PI3K-δ/nM (IC50 of inhibitory activity against PI3K kinase)
T1 construct: purchased Millipore 14-604M

[3] = molecular target: T2, PI3K-β kinase (p110β/p85α) (Homo sapiens, UniProt P42338); assay: as above; assay type: biochemical; settings: Table 1; ATP 10 μM; read-out: PI3K-β/nM (IC50 of inhibitory activity against PI3K kinase)
T2 construct: purchased Millipore 14-603

NIH3T3 cells = assay: Cytotoxicity by MTT assay, NIH3T3; assay type: cell-based; settings: cytotoxicity class, read-out: NIH3T3 cell (IC50/nM)
Protocol: The MTT assay procedure and steps were carried out as well known to those skilled in the art, and all the reagents used in the methods were commercially available.
The cells in logarithmic growth phase were digested with 0.25% EDTA trypsin (Gibco, 25200-056) and resuspended in fresh medium. 90 μL of the cell suspension was inoculated into a 96-well cell culture plate (BD Faclon 353072) with a suitable cell density and cultured at 37° C. under 5% CO2. After the cells adhered, 10 μL of the test compound at different concentrations (0.0046-10 μM, 8 concentration points) was added and incubated for another 72 h. 10 μL of MTT (5 mg/mL PBS solution) (Sigma, M5655) was added to react for 4 h. The absorbance at 492 nm was measured by using Thermo Scientific Multiskan MK3 microplate reader and IC50 was calculated using XLFIT 5.0 software (UK IDBS).

PI3K-γ kinase (p110γ) = molecular target: T3, PI3K-γ kinase (p110γ) (Homo sapiens, UniProt P48736); assay: Determination of PI3K kinase activity (ADP Transcreener, fluorescence polarization); assay type: biochemical; settings: Table 1; ATP 10 μM; read-out: PI3K-γ/nM (IC50 of inhibitory activity against PI3K kinase)
T3 construct: purchased Invitrogen PV4786
Summary of the method: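 Each 25 μL reaction held PI3K enzyme (p110α/p85α 3 ng, p110β/p85α 60 ng, p110δ/p85α 90 ng, or p110γ 100 ng), 10 μM ATP, 30 μM PIP2:PS and 2% DMSO, incubated 1 h at 25 °C. Compounds were tested in duplicate across a 3-fold series, 0.00046–1 μM as prepared. ADP was detected by Transcreener fluorescence polarization, quantified against an ADP/ATP standard curve, and IC50 fitted.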

[4] = molecular target: T4, PI3K-α kinase (p110α/p85α) (Homo sapiens, UniProt P42336); assay: as above; assay type: biochemical; settings: ATP 10 μM
T4 construct: purchased Invitrogen PV4788

[5] = tested on: Akt phosphorylation (Ser473-p-Akt) in PC-3 cells; assay: Inhibition of p-Akt phosphorylation level in PC-3 cells (cell level fluorescence imaging); assay type: cell-based; settings: Akt phosphorylation in PC-3 cells, 2 hours incubation; read-out: PC-3 cell (IC50/nM)
Protocol: This experiment was performed by cell level fluorescence image processing method.
Triton X-100: 10% aqueous Triton X-100 solution (Sigma T8787-100 mL) was prepared, stored at 4° C. and diluted by 1:100 to give 0.1% Triton X-100 aqueous solution for use in the experiment.
Prodium Iodide (PI): 1 mg/mL (1.5 mM) PI (Sigma P4170) storage solution was prepared with PBS and stored at −25° C. in the dark. For use, the PI storage solution was diluted with PBS by 1:1000 to give a 1.5 μM solution and used in dark.
PC-3 cells in logarithmic growth phase were digested with 0.25% EDTA trypsin. 3000 cells/90 μL were seeded in a 96-well plate (BD 356692) and cultured at 37° C. and 5% CO2. After the cells adhered, 10 μL of the compound to be tested which was gradiently diluted 3 times (0.0046 to 10 μM, 8 concentration points, in duplicate) was added and incubated for 2 hours, followed by addition of 100 μL of 4% paraformaldehyde (DINGGUO AR-0211) and incubated at room temperature for 45 minutes. Then 100 μL of 0.1% Triton X-100 solution was added and incubated for another 30 minutes.
Triton X-100 solution was removed and the cells were rinsed with 200 μl of PBS twice (300 rpm vibration for 1 minute). The blocking solution (1% BSA solution in PBS) (Genview FA016-100G) was added and incubated at room temperature for 2 hours. The plate was rinsed with PBS once (300 rpm, 1 min) and 30 μL of Ser473-p-Akt antibody (cell signaling 4060L) diluted with 0.1% BSA was added and incubated overnight at 4° C. Ser473-p-Akt antibody was removed and the plate was rinsed with PBS twice (300 rpm, 1 minute). 35 μL of Alexa Flour 488 donkey anti-rabbit IgG (Invitrogen A21206) was added and incubated at room temperature for 1.5 hours. The plate was rinsed with PBS twice (300 rpm, 1 minute) and 35 μL of 1.5 μM PI was added and incubated at room temperature for 0.5 h. The fluorescence intensity was measured with Acumen eX3 (TTP LabTech).
10 μM BEZ235 (Selleck S1009) treatment group was negative control and DMSO treatment group was positive control. Inhibition ratio %=[1−(the mean value of the fluorescence intensity of the compound to be tested−the mean value of the fluorescence intensity of the negative control group)/(the mean value of the fluorescence intensity of the positive control group−the mean value of the fluorescence intensity of the negative control group)]×100%

T47D cells = assay: Cell inhibitory activity detected by MTT assay, T47D; assay type: cell-based; settings: 72 h, read-out: T47D cell (IC50/nM), cell growth inhibition

T4 sequence (P42336 whole entry): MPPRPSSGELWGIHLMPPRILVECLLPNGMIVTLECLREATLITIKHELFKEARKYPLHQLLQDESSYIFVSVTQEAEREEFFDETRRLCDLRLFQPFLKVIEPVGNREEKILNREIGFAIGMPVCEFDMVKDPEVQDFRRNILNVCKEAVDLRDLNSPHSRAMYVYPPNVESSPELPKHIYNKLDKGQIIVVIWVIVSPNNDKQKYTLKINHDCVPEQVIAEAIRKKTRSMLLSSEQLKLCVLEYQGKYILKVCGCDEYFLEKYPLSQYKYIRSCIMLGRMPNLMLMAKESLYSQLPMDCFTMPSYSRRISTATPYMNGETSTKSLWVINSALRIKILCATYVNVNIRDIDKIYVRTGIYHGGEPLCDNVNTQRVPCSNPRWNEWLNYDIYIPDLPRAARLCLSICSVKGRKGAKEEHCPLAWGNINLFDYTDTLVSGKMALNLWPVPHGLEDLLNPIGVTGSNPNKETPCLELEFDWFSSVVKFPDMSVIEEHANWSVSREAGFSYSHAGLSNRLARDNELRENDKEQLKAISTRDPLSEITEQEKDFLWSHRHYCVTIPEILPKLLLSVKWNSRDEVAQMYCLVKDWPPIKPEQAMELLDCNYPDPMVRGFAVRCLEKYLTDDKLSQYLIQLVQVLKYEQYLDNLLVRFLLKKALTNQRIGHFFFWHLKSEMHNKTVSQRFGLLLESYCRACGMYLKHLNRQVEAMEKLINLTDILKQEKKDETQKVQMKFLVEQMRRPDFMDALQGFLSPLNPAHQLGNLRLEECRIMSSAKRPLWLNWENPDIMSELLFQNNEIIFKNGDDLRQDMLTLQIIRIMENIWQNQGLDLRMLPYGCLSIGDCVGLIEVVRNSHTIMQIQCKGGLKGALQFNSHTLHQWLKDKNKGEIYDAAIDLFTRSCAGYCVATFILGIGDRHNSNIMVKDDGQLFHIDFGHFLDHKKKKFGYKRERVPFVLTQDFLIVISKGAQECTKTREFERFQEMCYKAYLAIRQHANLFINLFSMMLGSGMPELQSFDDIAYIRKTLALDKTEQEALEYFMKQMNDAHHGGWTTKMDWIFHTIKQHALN
T4 sequence (P27986 whole entry partner): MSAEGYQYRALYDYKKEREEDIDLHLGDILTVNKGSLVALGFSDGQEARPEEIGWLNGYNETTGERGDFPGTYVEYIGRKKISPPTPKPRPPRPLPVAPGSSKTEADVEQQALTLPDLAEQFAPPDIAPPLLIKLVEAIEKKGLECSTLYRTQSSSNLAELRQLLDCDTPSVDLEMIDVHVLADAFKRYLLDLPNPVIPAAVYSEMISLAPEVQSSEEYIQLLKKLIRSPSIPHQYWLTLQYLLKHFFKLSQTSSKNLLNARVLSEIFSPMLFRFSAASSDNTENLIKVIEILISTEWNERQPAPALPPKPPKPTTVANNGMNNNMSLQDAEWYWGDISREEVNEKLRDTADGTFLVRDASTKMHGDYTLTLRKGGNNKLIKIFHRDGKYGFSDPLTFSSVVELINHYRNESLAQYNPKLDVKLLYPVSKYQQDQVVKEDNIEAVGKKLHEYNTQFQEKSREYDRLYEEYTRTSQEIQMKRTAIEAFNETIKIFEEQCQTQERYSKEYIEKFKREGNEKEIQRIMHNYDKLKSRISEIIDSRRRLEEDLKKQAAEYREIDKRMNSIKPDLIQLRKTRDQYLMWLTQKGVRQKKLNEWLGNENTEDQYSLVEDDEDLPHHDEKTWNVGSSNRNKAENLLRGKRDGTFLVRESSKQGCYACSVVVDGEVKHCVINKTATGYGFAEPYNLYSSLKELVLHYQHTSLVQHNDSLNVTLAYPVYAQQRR
T2 sequence (P42338 whole entry): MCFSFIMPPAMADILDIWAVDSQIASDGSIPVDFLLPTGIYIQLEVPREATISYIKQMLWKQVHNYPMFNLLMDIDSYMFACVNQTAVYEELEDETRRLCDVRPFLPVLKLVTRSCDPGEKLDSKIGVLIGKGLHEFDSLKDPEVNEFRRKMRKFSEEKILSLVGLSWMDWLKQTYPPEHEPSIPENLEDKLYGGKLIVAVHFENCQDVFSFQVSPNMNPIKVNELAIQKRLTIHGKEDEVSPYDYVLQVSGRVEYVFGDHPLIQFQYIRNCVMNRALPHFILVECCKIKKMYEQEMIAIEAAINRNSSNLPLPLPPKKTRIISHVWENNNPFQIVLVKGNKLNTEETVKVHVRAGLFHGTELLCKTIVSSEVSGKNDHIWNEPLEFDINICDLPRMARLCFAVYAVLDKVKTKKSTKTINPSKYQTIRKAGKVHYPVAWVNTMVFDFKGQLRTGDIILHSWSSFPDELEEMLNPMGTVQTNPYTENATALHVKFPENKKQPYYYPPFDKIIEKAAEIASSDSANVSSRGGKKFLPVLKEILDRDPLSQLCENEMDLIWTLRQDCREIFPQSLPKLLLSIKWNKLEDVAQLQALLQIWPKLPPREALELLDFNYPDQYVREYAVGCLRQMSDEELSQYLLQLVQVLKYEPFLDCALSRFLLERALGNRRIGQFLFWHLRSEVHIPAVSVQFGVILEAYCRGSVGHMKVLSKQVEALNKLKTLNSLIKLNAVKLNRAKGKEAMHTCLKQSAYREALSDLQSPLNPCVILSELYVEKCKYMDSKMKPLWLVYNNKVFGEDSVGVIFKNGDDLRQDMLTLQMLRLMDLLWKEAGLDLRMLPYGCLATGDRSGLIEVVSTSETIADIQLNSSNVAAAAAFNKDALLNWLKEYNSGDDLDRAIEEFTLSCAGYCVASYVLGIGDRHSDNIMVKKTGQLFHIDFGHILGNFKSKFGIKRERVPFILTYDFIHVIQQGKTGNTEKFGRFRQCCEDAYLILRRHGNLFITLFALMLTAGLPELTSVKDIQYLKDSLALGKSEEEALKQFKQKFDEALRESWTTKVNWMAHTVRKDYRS
T2 sequence (P27986 whole entry partner): as the sequence (P27986 whole entry partner) above
T1 sequence (O00329 whole entry): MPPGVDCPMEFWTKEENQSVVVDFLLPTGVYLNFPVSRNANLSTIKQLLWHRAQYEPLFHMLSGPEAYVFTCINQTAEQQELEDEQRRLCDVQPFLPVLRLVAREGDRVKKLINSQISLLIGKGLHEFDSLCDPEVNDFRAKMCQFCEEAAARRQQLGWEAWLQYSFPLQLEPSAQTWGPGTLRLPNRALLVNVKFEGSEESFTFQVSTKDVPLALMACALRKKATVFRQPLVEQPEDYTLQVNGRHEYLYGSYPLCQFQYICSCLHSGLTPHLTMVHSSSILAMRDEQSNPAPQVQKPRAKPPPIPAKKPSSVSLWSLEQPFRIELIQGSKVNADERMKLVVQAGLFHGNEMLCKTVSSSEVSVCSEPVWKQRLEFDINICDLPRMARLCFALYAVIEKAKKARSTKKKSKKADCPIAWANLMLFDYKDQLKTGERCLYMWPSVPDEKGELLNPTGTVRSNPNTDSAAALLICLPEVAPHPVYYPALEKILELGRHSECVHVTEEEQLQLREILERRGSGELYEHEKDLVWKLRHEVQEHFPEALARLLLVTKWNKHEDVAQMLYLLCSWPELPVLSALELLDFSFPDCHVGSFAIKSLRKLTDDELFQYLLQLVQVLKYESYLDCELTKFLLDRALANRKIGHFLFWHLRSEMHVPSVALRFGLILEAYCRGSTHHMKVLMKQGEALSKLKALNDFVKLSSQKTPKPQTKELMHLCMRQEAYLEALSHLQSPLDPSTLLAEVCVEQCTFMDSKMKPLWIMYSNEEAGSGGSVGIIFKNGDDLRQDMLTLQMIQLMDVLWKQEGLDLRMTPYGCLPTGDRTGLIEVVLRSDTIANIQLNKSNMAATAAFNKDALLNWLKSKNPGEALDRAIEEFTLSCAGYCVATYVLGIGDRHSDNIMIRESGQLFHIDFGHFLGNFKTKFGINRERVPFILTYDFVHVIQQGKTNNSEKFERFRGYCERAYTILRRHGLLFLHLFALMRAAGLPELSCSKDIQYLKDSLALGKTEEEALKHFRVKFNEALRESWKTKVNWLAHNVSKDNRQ
T1 sequence (P27986 whole entry partner): as the sequence (P27986 whole entry partner) above
T3 sequence (P48736 whole entry): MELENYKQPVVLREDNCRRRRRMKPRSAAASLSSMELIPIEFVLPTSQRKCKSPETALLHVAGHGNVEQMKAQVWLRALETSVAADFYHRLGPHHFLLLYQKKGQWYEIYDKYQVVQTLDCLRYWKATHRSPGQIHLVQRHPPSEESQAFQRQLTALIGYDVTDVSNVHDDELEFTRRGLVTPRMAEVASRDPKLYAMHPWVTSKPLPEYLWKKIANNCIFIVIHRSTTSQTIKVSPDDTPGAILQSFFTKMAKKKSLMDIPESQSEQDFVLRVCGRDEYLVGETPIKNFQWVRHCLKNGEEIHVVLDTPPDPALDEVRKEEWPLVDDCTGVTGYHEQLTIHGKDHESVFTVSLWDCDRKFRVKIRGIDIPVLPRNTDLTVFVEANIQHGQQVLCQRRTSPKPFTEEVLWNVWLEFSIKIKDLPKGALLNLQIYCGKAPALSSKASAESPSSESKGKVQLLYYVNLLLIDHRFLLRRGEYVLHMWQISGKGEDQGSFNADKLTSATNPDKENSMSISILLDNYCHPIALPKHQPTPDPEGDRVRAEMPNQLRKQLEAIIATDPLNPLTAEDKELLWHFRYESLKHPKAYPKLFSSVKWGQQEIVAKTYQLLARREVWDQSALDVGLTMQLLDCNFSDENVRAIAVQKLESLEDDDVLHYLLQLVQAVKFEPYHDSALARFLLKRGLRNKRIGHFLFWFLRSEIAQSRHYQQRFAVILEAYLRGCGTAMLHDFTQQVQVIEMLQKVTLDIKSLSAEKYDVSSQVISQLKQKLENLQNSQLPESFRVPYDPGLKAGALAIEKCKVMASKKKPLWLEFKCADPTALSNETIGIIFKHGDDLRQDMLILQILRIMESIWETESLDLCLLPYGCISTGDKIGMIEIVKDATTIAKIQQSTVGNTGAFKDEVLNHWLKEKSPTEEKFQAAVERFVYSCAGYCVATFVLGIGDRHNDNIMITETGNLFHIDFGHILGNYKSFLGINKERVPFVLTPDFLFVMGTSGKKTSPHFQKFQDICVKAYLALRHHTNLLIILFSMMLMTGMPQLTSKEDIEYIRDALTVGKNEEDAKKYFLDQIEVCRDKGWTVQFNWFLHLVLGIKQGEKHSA

| Structure (SMILES) | Clearance ratio (mL/min/kg) mouse [1] [mL/min/kg] | IC50 [2] [nM] | IC50 [3] [nM] | IC50 (NIH3T3 cells; Mus musculus, NIH3T3, 72 h) [nM] | IC50 (PI3K-γ kinase (p110γ)) [nM] | IC50 ([4]; Table 2, read-out: PI3K-α/nM (IC50 of inhibitory activity against PI3K-α kinase)) [nM] | IC50 [5] [nM] | IC50 (T47D cells) [nM] | IC50 (NIH3T3 cells; 72 h) [nM] | IC50 ([4]; Table 1, read-out: PI3K-α/nM (IC50 of inhibitory activity against PI3K kinase)) [nM] |
| --- | --- | --- | --- | --- | --- | --- | --- | --- | --- | --- |
| CC(C)(c1cc(-c2cnc(N)cc2C(F)(F)F)nc(N2CCOCC2)n1)S(=O)(=O)c1ccccc1 [Compound S-21] | 6337.31 | 214 | 832 | 1000 to 3000 | 843 | – | – | – | – | – |
| CC(C)(O)c1cc(-c2cnc(N)cc2C(F)(F)F)nc(N2CCOCC2)n1 [Compound S-50, 2-(6-(6-amino-4-(trifluoromethyl)pyridin-3-yl)-2-morpholin-4-yl)propan-2-ol] | – | – | – | – | – | 39 | 39 | 449 | 1000 to 3000 | – |
| Nc1cc(C(F)(F)F)c(-c2cc(C3(S(=O)(=O)c4ccc(F)cc4)CC3)nc(N3CCOCC3)n2)cn1 [Compound S-59] | 7163.43 | 235 | 721 | 1000 to 3000 | 813 | – | – | – | – | 37 |
